Reference: patent publication US20200165608A1, “INHIBITION OF VASCULAR ENDOTHELIAL CELL-MEDIATED PHAGOCYTIC PROCESSES FOR TREATMENT OF DEMYELINATING CONDITIONS” (FLORIDA STATE UNIVERSITY RESEARCH FOUNDATION, INC., priority 2018, published 2020)

Key:
[1] = test system: BMECs; test: In vitro endothelial-to-mesenchymal transition (endoMT) assays; assay type: cell-based, mouse; conditions: TGF-β1 10 ng/ml
Protocol: In vitro endothelial-to-mesenchymal transition (endoMT) assays. 5×10^3 BMECs were seeded in 24-well plate for endoMT induction. As positive control, recombinant TGF-β1 protein ([…]) was added to BMECs for 72 hr to induce in vitro endoMT. Cells were considered spindle-shaped when the diameter at their longest axis to be 1.5-fold greater than the average diameter of untreated cobblestone BMECs. Myelin debris (1 mg/ml) was added to BMECs for 1, 3, 5, 7, and 10 days and culture medium was changed every 3 days, followed by morphological observation of spindle-shape cells. α-SMA staining was used to confirm the mesenchymal transition. Percentage of spindle-shaped cells and percentage of a-SMA^+/CD31^+ were quantified. To examine the role of TGF-β in myelin-induced endoMT, pan TGF-β neutralizing antibody (20 μg/ml) was added to BMECs together with myelin debris for 10 days and re-supplemented every 3 days.

[2] = test system: myelin-ECs (BMECs); test: Myelin degradation into neutral lipids (Oil Red O staining) in myelin-BMECs after autophagy drug treatment; assay type: cell-based, mouse; conditions: 3-MA 2 mM 48 hr (1 mM elsewhere in the source), chloroquine 10 μM 24 hr, rapamycin 1 μM 24 hr
Protocol: Oil Red O (ORO) staining. ORO staining was performed to detect intracellular neutral lipid accumulation in injured spinal cords and cultured BMECs. Spinal frozen sections or fixed cells were dehydrated in 100% propylene glycol for 5 min, then stained with 0.5% ORO solution at 60° C. for 8 min. The samples were then processed with 85% propylene glycol for 5 min followed by distilled water rinsing for 3 times. Stained samples were imaged with a confocal laser scanning microscope. Starvation and drug treatments for autophagy assays. BMECs cultured with 5% FBS containing medium were used as negative control for autophagy. The positive control for autophagy induction, BMECs, were starved with Hanks Balanced Salt Solution for 6 hr to induce autophagy. 10 μM chloroquine, an inhibitor of lysosomes, or 1 μM of rapamycin, an inducer of autophagy, was added to BMECs cultures for 24 hr after myelin debris treatment. 2 mM of 3-MA, a PI3K inhibitor of autophagy was cultured with ECs for 48 hr, starting from the last 24 hr treatment of myelin debris to the subsequent 24 hr of medium wash. Cells grown on coverslips were fixed and stained with Oil Red 0 for detection of myelin-derived lipids as above described.

[3] = test system: BMECs; conditions: 1 mM 3-MA (48 hr), 10 μM chloroquine (24 hr)
Protocol: Propidium iodide (PI) staining assay for cell death analysis. Wild-type BMECs or Atg5 knockout BMECs were cultured with DMEM medium containing 5% FBS in 24-well plate. To test the toxicity of different autophagy-related drugs, BMECs were treated with or without myelin debris and were treated with or without 1 mM 3-MA (48 hr), 10 μM chloroquine (24 hr), or 1 μM rapamycin (24 hr). After reaching 70% confluence, cells were washed with 1×PBS and fixed with 4% PFA. The fixed cells were stained with propidium iodide and Hoechst, followed by imaging and quantification of PI positive nucleus using Nikon Element software.

[4] = q-PCR, immunostaining and western blot

| Compound | BMEC morphology (induction of endoMT) ([1]; 3 days) | CD31 expression in BMECs [1, 4] | a-SMA expression in BMECs [1, 4] | myelin degradation into neutral lipids (ORO+ lipids) in myelin-ECs [2] | cell toxicity (cell death by PI staining) [3] |
| --- | --- | --- | --- | --- | --- |
| TGF-β1: Recombinant mouse TGF-β1 (#5231), positive control, strong inducer of endoMT | elongated and exhibited the same spindle-like morphology as fibroblasts | markedly downregulated CD31 expression | strongly induced a-SMA expression | – | – |
| CCN(CC)CCCC(C)Nc1ccnc2cc(Cl)ccc12 (stereo not drawn) [chloroquine] | – | – | – | significantly inhibited myelin degradation into neutral lipids | without causing apparent cell toxicity |
| Cn1cnc(N)c2ncnc1-2 [3-MA, 3-methyladenine] | – | – | – | significantly inhibited myelin degradation into neutral lipids | – |
